“And” between values parts separate entries of the source, which are not always exact repeats. Equal entries are not always repeated. “Also recorded” adds a separate entry of the source.
Tests used:
BMI1 = assay: Western immunoblot analysis of miR-194 target BMI1 expression; type: cell-based, human; conditions: 50 nM
Description: (§1) Cell culture. The human pancreatic cancer cell lines ASPC-1, HS766T, and Panc-1, were obtained from the American Type Culture Collection (ATCC) and maintained in various types of media. Specifically, HS766T and PANC1 cells were cultured in DMEM containing media, and APSC-1 cells were maintained in RPMI medium (Thermo Fischer). Media was supplemented with 10% fetal bovine serum (Thermo Fischer).
(§2) Western immunoblot analysis. Twenty-four hours prior to transfection 1×10^5 cells were plated in 6 well plates. Cells were either transfected using Oligofectamine (Thermo Fischer) or no transfection vehicle, with 50 nM control miRNA (Thermo Fischer), miR-194 or one of the three miR-194 mimics. Three days following transfection protein was collected in RIPA buffer with protease inhibitor (Sigma). Equal amounts of protein (15 μg), were separated on 10% sodium dodecyl sulfate-polyacrylamide gels as described in Laemmli U K. Nature. 1970; 227(5259) pp. 680-685, the entire contents of which is incorporated herein by reference. Proteins were probed with anti-SET8 or BMI-1 (1:500) (Cell Signaling Technologies) and anti-GAPDH (1:100000) antibodies. Horseradish peroxidase conjugated antibodies against mouse or rabbit (1:5000, Santa Cruz Biotech Inc.) were used as the secondary antibodies. Protein bands were visualized with autoradiography film using SuperSignal West Pico Chemiluminescent Substrate (Thermo Fischer).

[1] = tested on: ASPC1 pancreatic cancer cells; assay: Cell viability assay (WST-1) in ASPC1 pancreatic cancer cells; type: cell-based, human; conditions: for IC50: WST-1 dye 6 days after treatment, calculated using CompuSyn
Description: as §1
(§3) Cell viability assay. Cells were plated 1000 cells per well in 96 well plates. Twenty four hours later cell media was changed to media supplemented with DFBS, with 50, 25, 12.5, 6.25, 3.125 or 1.5625 nM of Control miRNA (Thermo Fischer), miR-194, 5-FU-miR-194, Gem-mIR-194 or 5-FU-Gem-miR-194. 24 hours later media was changed again to fresh media supplemented with DFBS. 6 days after treatment cell number was assessed using WST-1 dye (Roche). Cells were incubated with 10 μl of WST-1 dye per 100 μl of media for 1 hour and absorbance was read at 450 and 630 nm. The optical density (O.D.) was calculated by subtracting the absorbance at 630 nm from that at 450 nm. IC^50 values were calculated using CompuSyn software (ComboSyn, Inc).

[2] = tested on: PANC1 pancreatic cancer cells; assay: Cell viability assay (WST-1) in PANC1 pancreatic cancer cells; type: cell-based, human; conditions: for IC50: WST-1 dye 6 days after treatment, calculated using CompuSyn
Description: as §1, §3

[3] = tested on: HS766T pancreatic cancer cells; assay: Cell viability assay (WST-1) in HS766T pancreatic cancer cells; type: cell-based, human; conditions: for IC50: WST-1 dye 6 days after treatment, calculated using CompuSyn
Description: as §1, §3

SET8 = assay: Western immunoblot analysis of miR-194 target SET8 expression; type: cell-based, human; conditions: 50 nM
Description: as §1, §2

[4] = tested on: Luciferase-expressing HS766T cells; assay: Pancreatic cancer metastasis mouse model (tail vein injection, IVIS imaging); type: in vivo; conditions: 80 μg intravenous injection every other day for two weeks, started four days after establishing metastasis, versus negative control microRNA
Description: (§4) Mouse subcutaneous tumor implantation model. For in vivo miRNA delivery experiments, pancreatic cancer cells were created that expressed the lenti-luc reporter gene by infecting parental pancreatic cancer cells with a recombinant lentivirus. Luciferase-expressing HS766T cells (2.0×10^6 cells per mouse) were suspended in 0.1 mL of PBS solution and was injected through tail vein of each mouse. Four days after injection of pancreatic cancer cells, mice were treated via tail vein injection with 80 μg of negative control or modified miR(s) packaged with in vivo-jet PEI (Polyplus Transfection). Mice were treated every other day for 2 weeks (8 times). Following treatment, mice were screened using IVIS Spectrum In vivo Imaging System (IVIS) (PerkinElmer).

[5] = Toxicity in mice treated in the pancreatic cancer metastasis model; type: in vivo; conditions: mouse; 80 μg intravenous injection every other day for two weeks
Description: as §4

[6] = no transfection vehicle, three days, FIG. 2D
[7] = in the presence of a transfection agent (Oligofectamine), three days following transfection, FIG. 2A
[8] = no transfection vehicle, three days, FIG. 2B
[9] = in the presence of a transfection agent (Oligofectamine), three days following transfection, FIG. 2C

Substance: miR-194: unmodified (native) miR-194 sequence UGUAACAGCAACUCCAUGUGGA [SEQ ID NO. 1] (unmodified RNA; listed as Homo sapiens) [reference compound]
- BMI1 protein expression (Western blot) (BMI1; [6]): unable to inhibit target expression

Substance: 5-FU-miR-194 (NGNAACAGCAACNCCANGNGGA; 5-FU replacing U; fluorouracil modified miR-194 with a fluorouracil molecule at positions 1, 3, 13, 17 and 19; (1)..(1) N is Fluorouracil molecule; (3)..(3) N is Fluorouracil molecule; (13)..(13) N is Fluorouracil molecule; (17)..(17) N is Fluorouracil molecule; (19)..(19) N is Fluorouracil molecule)
- IC50 [1]: 6.06 nM
- IC50 [2]: 16 nM and 16.7 nM
- IC50 [3]: 26.4 nM
- SET8 protein expression (Western blot) (SET8; [7]): more potent than unmodified (control) miR-194
- SET8 protein expression (Western blot) (SET8; [8]): retain the ability to inhibit SET8
- BMI1 protein expression (Western blot) (BMI1; [9]): more potent than unmodified (control) miR-194
- BMI1 protein expression (Western blot) (BMI1; [6]): retain the ability to inhibit

Substance: Gem-miR-194: modified miR-194, all 5 cytosine bases in the guide strand replaced by gemcitabine: UGUAANAGNAANUNNAUGUGGA [SEQ ID NO. 2], N is gemcitabine (cytosines replaced by gemcitabine, chemistry not fully specified)
- pancreatic cancer cell viability (in words) ([1]; 1.5625-50 nM, FIG. 3A): reduce pancreatic cancer cell viability
- IC50 [1]: 4.29 nM
- pancreatic cancer cell viability (in words) ([2]; 1.5625-50 nM, FIG. 3B): reduce pancreatic cancer cell viability
- IC50 [2]: 1.92 nM
- pancreatic cancer cell viability (in words) ([3]; 1.5625-50 nM, FIG. 3C): reduce pancreatic cancer cell viability
- IC50 [3]: 3.57 nM
- SET8 protein expression (Western blot) (SET8; [7]): more potent than unmodified (control) miR-194; also recorded: inhibit SET8 and BMI1
- SET8 protein expression (Western blot) (SET8; [8]): retain the ability to inhibit SET8; also recorded: inhibit SET8 and BMI1
- BMI1 protein expression (Western blot) (BMI1; [9]): more potent than unmodified (control) miR-194; also recorded: inhibit SET8 and BMI1
- BMI1 protein expression (Western blot) (BMI1; [6]): retain the ability to inhibit; also recorded: inhibit SET8 and BMI1
- metastatic pancreatic cancer growth ([4]; FIG. 4): able to inhibit metastatic pancreatic cancer growth compared to control
- metastatic pancreatic cancer growth ([4]; FIG. 4, listed as SEQ ID NO: 2): inhibiting tumor growth in vivo
- metastatic pancreatic cancer growth ([4]; FIG. 4, listed as SEQ ID NOs: 2): able to inhibit metastatic pancreatic cancer growth compared to control
- toxicity in treated mice [5]: did not exhibit any toxicity

— US20220145304A1, “MODIFIED MICRORNAS AND THEIR USE IN THE TREATMENT OF CANCER” (The Research Foundation for The State University of New York, priority 2019, published 2022)
